Measured values published in patent US20230295131A1, “INHIBITORS OF RHO-ASSOCIATED COILED-COIL KINASE” (Angion Biomedica Corp., priority 2020, published 2023).
pKd: −log10 of the molar value. Where a name gives a salt, the structure may show the parent alone. Read-outs that look alike come from different tables or passages of the source.

Columns and labels:
[1] = molecular target: T1, ROCK1 (Homo sapiens, UniProt Q13464); assay: ROCK1 kinase binding affinity, DiscoverX KINOMEscan KdELECT; conditions: 11-point 3-fold dilution
T1 construct: T7 phage fusion (kinase-tagged phage) or DNA tag for qPCR detection
T1 sequence (Q13464 whole entry, the tested form may be a part): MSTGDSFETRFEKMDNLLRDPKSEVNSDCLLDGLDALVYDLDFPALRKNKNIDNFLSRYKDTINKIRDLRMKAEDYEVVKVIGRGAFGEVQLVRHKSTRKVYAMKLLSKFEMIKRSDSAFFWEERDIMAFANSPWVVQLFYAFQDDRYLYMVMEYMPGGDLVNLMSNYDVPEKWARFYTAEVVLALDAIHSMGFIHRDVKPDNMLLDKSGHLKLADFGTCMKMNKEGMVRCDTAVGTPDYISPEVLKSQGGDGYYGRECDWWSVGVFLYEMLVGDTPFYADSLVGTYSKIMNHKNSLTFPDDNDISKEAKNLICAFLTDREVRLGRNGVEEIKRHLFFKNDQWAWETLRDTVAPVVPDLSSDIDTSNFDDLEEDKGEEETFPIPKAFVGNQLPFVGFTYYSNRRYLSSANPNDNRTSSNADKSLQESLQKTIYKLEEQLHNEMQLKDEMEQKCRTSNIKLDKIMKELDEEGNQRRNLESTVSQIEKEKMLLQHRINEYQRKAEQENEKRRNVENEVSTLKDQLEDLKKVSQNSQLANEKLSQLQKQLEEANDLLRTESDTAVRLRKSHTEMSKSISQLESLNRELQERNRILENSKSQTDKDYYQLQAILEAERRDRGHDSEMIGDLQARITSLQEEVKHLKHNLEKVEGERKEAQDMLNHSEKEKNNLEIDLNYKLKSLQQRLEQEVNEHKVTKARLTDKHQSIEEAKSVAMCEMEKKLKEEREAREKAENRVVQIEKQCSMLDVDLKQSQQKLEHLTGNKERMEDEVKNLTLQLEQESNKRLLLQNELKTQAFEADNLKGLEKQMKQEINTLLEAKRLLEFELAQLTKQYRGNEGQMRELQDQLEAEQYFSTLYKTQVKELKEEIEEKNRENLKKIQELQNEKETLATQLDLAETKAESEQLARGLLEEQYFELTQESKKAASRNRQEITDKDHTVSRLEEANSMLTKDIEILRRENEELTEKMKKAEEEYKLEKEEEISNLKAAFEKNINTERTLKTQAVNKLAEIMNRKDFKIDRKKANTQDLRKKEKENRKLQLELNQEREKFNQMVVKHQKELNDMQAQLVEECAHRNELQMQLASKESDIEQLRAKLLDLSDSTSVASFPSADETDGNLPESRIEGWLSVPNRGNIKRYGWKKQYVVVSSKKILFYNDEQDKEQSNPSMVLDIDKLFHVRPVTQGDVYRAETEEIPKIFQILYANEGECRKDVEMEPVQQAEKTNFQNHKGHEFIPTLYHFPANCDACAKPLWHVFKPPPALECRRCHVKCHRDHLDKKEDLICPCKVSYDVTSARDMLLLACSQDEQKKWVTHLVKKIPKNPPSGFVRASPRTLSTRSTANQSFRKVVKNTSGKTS
Experimental: (§1) 1. ROCK1 and ROCK2 kinase assays: The ROCK1 and ROCK2 kinase binding affinities of compounds in this disclosure were determined by DiscoverX's KINOMEscan™ KdELECT technology (https://www.discoverx.com/kinomescan-elect-kinase-screening-and-profiling-services): Kinase-tagged T7 phage strains were prepared in an E. coli host derived from the BL21 strain. E. coli were grown to log-phase and infected with T7 phage and incubated with shaking at 32° C. until lysis. The lysates were centrifuged and filtered to remove cell debris. The remaining kinases were produced in HEK-293 cells and subsequently tagged with DNA for qPCR detection. […] The liganded beads were blocked with excess biotin and washed with blocking buffer (SeaBlock (Pierce), 1% BSA, 0.05% Tween 20, 1 mM DTT) to remove unbound ligand and to reduce nonspecific binding. […] Kds were determined using an 11-point 3-fold compound dilution series with three DMSO control points. […] The compounds were then diluted directly into the assays such that the final concentration of DMSO was 0.9%. All reactions performed in polypropylene 384-well plate. Each was a final volume of 0.02 ml. […] The kinase concentration in the eluates was measured by qPCR.

[2] = molecular target: T2, ROCK2 (Homo sapiens, UniProt O75116); assay: ROCK2 kinase binding affinity, DiscoverX KINOMEscan KdELECT; conditions: for Kd: KINOMEscan KdELECT, 11-point 3-fold dilution, read-out: Kd (μM) ROCK2; for ROCK2 Selectivity: selectivity for ROCK2 over ROCK1 from Kd
T2 construct: T7 phage fusion (kinase-tagged phage) or DNA tag for qPCR detection
T2 sequence (O75116 whole entry, the tested form may be a part): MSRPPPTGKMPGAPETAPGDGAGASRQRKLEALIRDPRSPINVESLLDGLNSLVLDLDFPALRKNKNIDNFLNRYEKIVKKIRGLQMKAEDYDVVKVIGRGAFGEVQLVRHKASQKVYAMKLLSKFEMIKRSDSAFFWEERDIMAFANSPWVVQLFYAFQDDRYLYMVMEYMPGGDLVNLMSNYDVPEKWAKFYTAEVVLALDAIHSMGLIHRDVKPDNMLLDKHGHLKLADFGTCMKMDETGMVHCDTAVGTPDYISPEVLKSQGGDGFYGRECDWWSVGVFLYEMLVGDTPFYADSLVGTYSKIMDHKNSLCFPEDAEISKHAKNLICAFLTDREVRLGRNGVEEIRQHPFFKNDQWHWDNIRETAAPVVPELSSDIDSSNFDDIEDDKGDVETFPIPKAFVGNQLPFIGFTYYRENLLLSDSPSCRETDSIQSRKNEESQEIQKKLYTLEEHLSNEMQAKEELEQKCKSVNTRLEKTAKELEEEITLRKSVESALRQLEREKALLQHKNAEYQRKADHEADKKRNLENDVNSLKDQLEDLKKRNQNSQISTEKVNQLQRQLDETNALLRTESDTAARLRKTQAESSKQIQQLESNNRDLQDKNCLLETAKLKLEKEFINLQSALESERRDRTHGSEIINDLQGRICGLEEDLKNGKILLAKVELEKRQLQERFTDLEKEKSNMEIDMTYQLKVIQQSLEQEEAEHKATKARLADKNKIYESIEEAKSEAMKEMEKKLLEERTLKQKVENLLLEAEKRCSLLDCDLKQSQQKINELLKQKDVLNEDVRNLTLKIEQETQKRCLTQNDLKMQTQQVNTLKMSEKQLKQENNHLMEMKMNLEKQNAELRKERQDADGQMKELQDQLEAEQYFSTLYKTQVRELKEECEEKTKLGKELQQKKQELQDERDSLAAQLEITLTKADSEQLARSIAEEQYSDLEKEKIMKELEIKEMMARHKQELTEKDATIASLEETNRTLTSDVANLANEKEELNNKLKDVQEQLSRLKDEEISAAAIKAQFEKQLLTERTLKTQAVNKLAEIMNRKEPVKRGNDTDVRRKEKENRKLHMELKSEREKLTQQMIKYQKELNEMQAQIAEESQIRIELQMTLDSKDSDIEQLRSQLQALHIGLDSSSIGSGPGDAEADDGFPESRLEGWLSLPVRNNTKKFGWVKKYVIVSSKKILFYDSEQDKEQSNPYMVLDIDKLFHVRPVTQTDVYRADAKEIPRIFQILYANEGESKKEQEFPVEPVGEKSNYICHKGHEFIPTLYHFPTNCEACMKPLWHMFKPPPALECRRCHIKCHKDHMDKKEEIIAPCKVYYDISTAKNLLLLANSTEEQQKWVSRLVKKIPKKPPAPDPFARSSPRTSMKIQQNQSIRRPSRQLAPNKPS
Experimental: as §1

Compound | Kd [1] [µM] | Kd [2] [µM] | ROCK2 Selectivity [2] | pKd [2]
CN(C)C(=O)CNc1nccc(-c2nccc(C#Cc3ccc4[nH]nc(F)c4c3)n2)n1 [Ex. 46, 2-((4-((3-Fluoro-1H-indazol-5-yl)ethynyl)-[2,4′-bipyrimidin]-2′-yl)amino)-N,N-dimethylacetamide] | 1 to 9.9 | 0.01 to 0.099 | ** (50 to 150-fold selectivity for ROCK2) | 
O[C@H]1CC[C@@H](Nc2nccc(-c3nccc(C#Cc4ccc5[nH]cnc5c4)n3)n2)CC1 [Ex. 95, (1s,4s)-4-((4-((1H-Benzo[d]imidazol-5-yl)ethynyl)-[2,4′-bipyrimidin]-2′-yl)amino)cyclohexanol] | 10 to 100 |  | *** (151 to 500-fold selectivity for ROCK2) | 7.00 to 8.00
COC(=O)[C@H]1CC[C@H](Nc2nccc(-c3nccc(C#Cc4ccc5[nH]ncc5c4)n3)n2)CC1 [Ex. 86, (1r,4r)-Methyl 4-((4-((1H-indazol-5-yl)ethynyl)-[2,4′-bipyrimidin]-2′-yl)amino)cyclohexanecarboxylate] | 0.1 to 0.99 | < 0.01 | *** (151 to 500-fold selectivity for ROCK2) | 
Fc1ccc(CNc2nccc(-c3nccc(C#Cc4cc(F)c5[nH]ncc5c4)n3)n2)nc1 [Ex. 36, 4-((7-Fluoro-1H-indazol-5-yl)ethynyl)-N-((5-fluoropyridin-2-yl)methyl)-[2,4′-bipyrimidin]-2′-amine] | 1 to 9.9 | 0.01 to 0.099 | ** (50 to 150-fold selectivity for ROCK2) | 
FC(F)(F)c1ccc(CNc2nccc(-c3nccc(C#Cc4ccc5[nH]ncc5c4)n3)n2)nc1 [Ex. 48, 4-((1H-Indazol-5-yl)ethynyl)-N-((5-(trifluoromethyl)pyridin-2-yl)methyl)-[2,4′-bipyrimidin]-2′-amine] | 0.1 to 0.99 | < 0.01 | ** (50 to 150-fold selectivity for ROCK2) | 
Fc1cnc(CNc2nccc(-c3nccc(C#Cc4ccc5[nH]ncc5c4)n3)n2)c(F)c1 [Ex. 38, 4-((1H-Indazol-5-yl)ethynyl)-N-((3,5-difluoropyridin-2-yl)methyl)-[2,4′-bipyrimidin]-2′-amine] | 0.1 to 0.99 | < 0.01 | ** (50 to 150-fold selectivity for ROCK2) | 
Fc1cc(CNc2nccc(-c3nccc(C#Cc4ccc5[nH]ncc5c4)n3)n2)ccn1 [Ex. 33, 4-((1H-Indazol-5-yl)ethynyl)-N-((2-fluoropyridin-4-yl)methyl)-[2,4′-bipyrimidin]-2′-amine] | 1 to 9.9 | < 0.01 | *** (151 to 500-fold selectivity for ROCK2) | 
C(#Cc1ccnc(-c2ccnc(NCc3nc4ccccc4[nH]3)n2)n1)c1ccc2[nH]ncc2c1 [Ex. 57, N-((1H-Benzo[d]imidazol-2-yl)methyl)-4-((1H-indazol-5-yl)ethynyl)-[2,4′-bipyrimidin]-2′-amine] | 10 to 100 | 0.01 to 0.099 | **** (>500-fold selectivity for ROCK2) | 
O=c1[nH]cccc1CNc1nccc(-c2nccc(C#Cc3ccc4[nH]ncc4c3)n2)n1 [Ex. 21, 3-(((4-((1H-Indazol-5-yl)ethynyl)-[2,4′-bipyrimidin]-2′-yl)amino)methyl)pyridin-2(1H)-one] | 0.1 to 0.99 | 0.01 to 0.099 | ** (50 to 150-fold selectivity for ROCK2) | 
Fc1nccc(Cl)c1CNc1nccc(-c2nccc(C#Cc3ccc4[nH]ncc4c3)n2)n1 [Ex. 64, 4-((1H-Indazol-5-yl)ethynyl)-N-((4-chloro-2-fluoropyridin-3-yl)methyl)-[2,4′-bipyrimidin]-2′-amine] | 0.1 to 0.99 | 0.01 to 0.099 | * (<50-fold selectivity for ROCK2) | 
Fc1ncccc1CNc1nccc(-c2nccc(C#Cc3ccc4[nH]ncc4c3)n2)n1 [Ex. 6, 4-((1H-Indazol-5-yl)ethynyl)-N-((2-fluoropyridin-3-yl)methyl)-[2,4′-bipyrimidin]-2′-amine] | 0.01 to 0.099 | < 0.01 | * (<50-fold selectivity for ROCK2) | 
Fc1n[nH]c2ccc(C#Cc3ccnc(-c4ccnc(NCC5CCCO5)n4)n3)cc12 (stereo not drawn) [Ex. 50, 4-((3-Fluoro-1H-indazol-5-yl)ethynyl)-N-((tetrahydrofuran-2-yl)methyl)-[2,4′-bipyrimidin]-2′-amine] | 1 to 9.9 | < 0.01 | *** (151 to 500-fold selectivity for ROCK2) | 
O=C(CNc1nccc(-c2nccc(C#Cc3ccc4[nH]ncc4c3)n2)n1)NC12CCC(CC1)C2 [Ex. 2, 2-((4-((1H-Indazol-5-yl)ethynyl)-[2,4′-bipyrimidin]-2′-yl)amino)-N-(bicyclo[2.2.1]heptan-1-yl)acetamide] | 0.1 to 0.99 | < 0.01 | *** (151 to 500-fold selectivity for ROCK2) | 
C(#Cc1ccnc(-c2ccnc(NCc3ncc[nH]3)n2)n1)c1ccc2[nH]ncc2c1 [Ex. 23, N-((1H-Imidazol-2-yl)methyl)-4-((1H-indazol-5-yl)ethynyl)-[2,4′-bipyrimidin]-2′-amine] | 1 to 9.9 | 0.01 to 0.099 | ** (50 to 150-fold selectivity for ROCK2) | 
O[C@H]1CC[C@@H](Nc2nccc(-c3nccc(C#Cc4ccc5[nH]ncc5c4)n3)n2)C1 [Ex. 82, (1S,3R)-3-((4-((1H-Indazol-5-yl)ethynyl)-[2,4′-bipyrimidin]-2′-yl)amino)cyclopentanol] | 0.1 to 0.99 | < 0.01 | **** (>500-fold selectivity for ROCK2) | 
Fc1ccc(CNc2nccc(-c3nccc(C#Cc4ccc5[nH]ncc5c4)n3)n2)nc1 [Ex. 3, 4-((1H-Indazol-5-yl)ethynyl)-N-((5-fluoropyridin-2-yl)methyl)-[2,4′-bipyrimidin]-2′-amine] | 1 to 9.9 | < 0.01 | *** (151 to 500-fold selectivity for ROCK2) | 
O[C@H]1CC[C@@H](Nc2nccc(-c3nccc(C#Cc4ccn5cnnc5c4)n3)n2)CC1 [Ex. 97, (1s,4s)-4-((4-([1,2,4]Triazolo[4,3-a]pyridin-7-ylethynyl)-[2,4′-bipyrimidin]-2′-yl)amino)cyclohexanol] | 10 to 100 | 10 to 100 | * (<50-fold selectivity for ROCK2) | 
O[C@H]1CC[C@H](Nc2nccc(-c3nccc(C#Cc4ccc5[nH]ncc5c4)n3)n2)C1 [Ex. 90, (1S,3S)-3-((4-((1H-Indazol-5-yl)ethynyl)-[2,4′-bipyrimidin]-2′-yl)amino)cyclopentanol] | 1 to 9.9 | < 0.01 | *** (151 to 500-fold selectivity for ROCK2) | 
C(#Cc1ccnc(-c2ccnc(N[C@@H]3CCOC3)n2)n1)c1ccc2[nH]ncc2c1 [Ex. 59, (R)-4-((1H-Indazol-5-yl)ethynyl)-N-(tetrahydrofuran-3-yl)-[2,4′-bipyrimidin]-2′-amine] | 1 to 9.9 | < 0.01 | *** (151 to 500-fold selectivity for ROCK2) | 
COC(=O)[C@H]1CC[C@@H](Nc2nccc(-c3nccc(C#Cc4ccc5[nH]ncc5c4)n3)n2)CC1 [Ex. 91, (1s,4s)-Methyl 4-((4-((1H-indazol-5-yl)ethynyl)-[2,4′-bipyrimidin]-2′-yl)amino)cyclohexanecarboxylate] | 0.1 to 0.99 | < 0.01 | ** (50 to 150-fold selectivity for ROCK2) | 
C(#Cc1ccnc(-c2ccnc(NCc3ccccc3)n2)n1)c1ccc2[nH]ncc2c1 [Ex. 14, 4-((1H-Indazol-5-yl)ethynyl)-N-benzyl-[2,4′-bipyrimidin]-2′-amine] | 1 to 9.9 | 0.01 to 0.099 | * (<50-fold selectivity for ROCK2) | 
C(#Cc1ccnc(-c2ccnc(NCc3ccc4c(c3)CNC4)n2)n1)c1ccc2[nH]ncc2c1 [Ex. 20, 4-((1H-Indazol-5-yl)ethynyl)-N-(isoindolin-5-ylmethyl)-[2,4′-bipyrimidin]-2′-amine trifluoroacetate salt] | 0.1 to 0.99 | 0.01 to 0.099 | * (<50-fold selectivity for ROCK2) | 
CN1CCN(C(=O)CNc2nccc(-c3nccc(C#Cc4ccc5[nH]ncc5c4)n3)n2)CC1 [Ex. 73, 2-((4-((1H-Indazol-5-yl)ethynyl)-[2,4′-bipyrimidin]-2′-yl)amino)-1-(4-methylpiperazin-1-yl)ethanone] | 0.1 to 0.99 | 0.01 to 0.099 | * (<50-fold selectivity for ROCK2) | 
Cc1ccc(CNc2nccc(-c3nccc(C#Cc4ccc5[nH]ncc5c4)n3)n2)nc1 [Ex. 24, 4-((1H-Indazol-5-yl)ethynyl)-N-((5-methylpyridin-2-yl)methyl)-[2,4′-bipyrimidin]-2′-amine] | 0.1 to 0.99 | < 0.01 | ** (50 to 150-fold selectivity for ROCK2) | 
Fc1cnccc1CNc1nccc(-c2nccc(C#Cc3ccc4[nH]ncc4c3)n2)n1 [Ex. 31, 4-((1H-Indazol-5-yl)ethynyl)-N-((3-fluoropyridin-4-yl)methyl)-[2,4′-bipyrimidin]-2′-amine] | 1 to 9.9 | 0.01 to 0.099 | ** (50 to 150-fold selectivity for ROCK2) | 
Fc1ccccc1CNc1nccc(-c2nccc(C#Cc3ccc4[nH]ncc4c3)n2)n1 [Ex. 15, 4-((1H-Indazol-5-yl)ethynyl)-N-(2-fluorobenzyl)-[2,4′-bipyrimidin]-2′-amine] | 10 to 100 | 0.01 to 0.099 | *** (151 to 500-fold selectivity for ROCK2) | 
